{"source": "patent US20120184625A1", "about": "“METHODS AND COMPOSITIONS FOR CONTROLLING PESTS” (priority 2001, published 2012)", "key": {"[1]": {"test_system": "Two spotted mite (TSM) Tetranychus urticae Koch", "assay": "TSM leaf disc bioassay, Potter spray tower", "format": "in vivo", "set-up": "LD50 and 95% CL: unit not given beside the values", "settings": "for LD50 and 95% CL: in vivo", "procedure": "Two spotted mite (TSM) Tetranychus urticae Koch [Acarina: Tetranychidae] were collected from a mass culture maintained at the University of Western Sydney's Hawkesbury Campus in Richmond, NSW, Australia. They were reared on potted French beans (Phaseolus vulgaris L [Fabales: Fabaceae] in a glasshouse maintained at 25±5° C., 65±5% RH and 14 h D:L photoperiod. Only young females were selected for bioassay.\nFrom an E. cloeziana oil extract (containing 85% tasmanone), 1.1765 g was dissolved in 5 mL ethyl alcohol and distilled water containing 200 ppm Triton X-100™ was added to prepare a 1% stock solution. From this homogenised stock solution, further serial dilutions of 0.0125, 0.025, 0.05, 0.10, and 0.12% were prepared by mixing the required amount of stock solution in distilled water and Triton X-100 solution. Each treatment was conducted on 60-80 TSM, which were evenly distributed on four French bean leaf discs (25 mm diam) contained in 90 mm diam. petri dishes. The leaf discs were placed with their underside uppermost on moist absorbent cotton wool covered with muslin netting. Water was added to the dishes daily to prevent desiccation of the leaf discs. Five mL aliquots (unless otherwise stated) were applied to each petri dish with a Potter precision spray tower as described by Herron et al (1995). The average mass of solution applied to each dish was calculated to be 3.95 mg/cm^2. Mortality was recorded 24 h after treatment. Death was recognised by the absence of movement when the test organisms were mechanically stimulated. Data were analysed using SPSS for Windows™ Version 7. Probit analysis was carried out for dose-mortality data and heterogeneity of regressions was determined by the Pearson chi-squared characteristic.\nIn addition, TSM was treated with E. cloeziana oil extract in combination with paraffin oil. In particular, E. cloeziana oil extract at levels of 0.1, 0.2, 0.3, 0.4 and 0.5 g were weighed out and each was made up to a weight of 10.0 g with a formulated paraffin oil (BioPest®), which was then sonicated for 10 min. A 1.0% v/v of each blend was prepared by mixing 1.0 mL with distilled water in a 100.0 mL volumetric flask. TSM were transferred to the petri dish following the same standard method. Five-mL aliquots were applied to each petri dish and mortality was recorded 24 h after treatment. All blends of E. cloeziana oil extract with paraffin oil produced 100.0% mortality, compared with Biopest® alone which caused only 35.5±6.9 mortality.\nThe efficacy of purified β-triketones against TSM was investigated using the TSM bioassay described in Example 8."}, "[2]": {"test_system": "greenhouse thrips (GHT), Heliothrips haemorrhoidalis Bouché", "assay": "Greenhouse thrips bioassay on lemon leaf discs, Potter spray tower", "format": "in vivo", "procedure": "Adult parthenogenetic female greenhouse thrips (GHT), Heliothrips haemorrhoidalis Bouché (Thysanoptera: Thripidae) of similar age were obtained from a colony reared on orange fruits and maintained in an insectary at UWS Hawkesbury under conditions of 25±3° C., 65% RH and 16 h D:L photoperiod\nThe same experimental procedure used for TSM was repeated for GHT except that lemon leaf discs were used instead of French beans. The required number of adult thrips for each treatment was transferred with a fine brush to the underside of a lemon disc of the same diameter (6 cm) as the base of a petri dish. The lemon disc was mounted on agar with its adaxial side uppermost. Immediately after treatment the petri dish was covered with perforated plastic wrap. […]\nThe efficacy of purified β-triketones against GHT was investigated using the GHT bioassay described in Example 8.\nAll β-triketones except jensenone caused 100% mortality on GHT at a concentration of 0.3% when 5 mL aliquots were applied with a Potter spray tower."}}, "data": [{"smiles": "CC(=O)C1=C(O)C(C)CC(C)(C)C1=O", "note": "(stereo not drawn) [Angustione, 1-acetyl-3,5,5-trimethylcyclohex-2,6-dione]", "values": [{"measurement": "LD50 and 95% CL", "setting": "[1]", "result": "0.22 (0.21-0.24)"}]}, {"smiles": "CC(=O)C1=C(O)C(C)(C)C=C(C)C1=O", "note": "[Dehydroangustione, 1-acetyl-3,5,5-trimethylcyclohex-3-en-2,6-dione]", "values": [{"measurement": "LD50 and 95% CL", "setting": "[1]", "result": "0.36 (0.33-0.41)"}]}, {"smiles": "CC1(C)C(=O)C(CCc2ccccc2)C(=O)C(C)(C)C1=O", "note": "[Grandiflorone, 1-(2-phenylethyl)-3,3,5,5-tetramethylcyclohexan-2,4,6-trione]", "values": [{"measurement": "LD50 and 95% CL", "setting": "[1]", "result": 0.04}]}, {"smiles": "CC(C)CC(=O)C1C(=O)C(C=O)C(=O)C(C=O)C1=O", "note": "(stereo not drawn) [Jensenone]", "values": [{"measurement": "behavioural effect on treated TSM", "setting": "[1]; TSM, 0.05-0.4%", "result": "to move normally and continued to convulse"}, {"measurement": "recovery of treated TSM", "setting": "[1]; TSM, 0.05-0.4%", "result": "treatment. There was no recovery."}, {"measurement": "time after treatment at which TSM commenced to die", "setting": "[1]; TSM, 0.05-0.4%", "result": "until they commenced to die 72 h after"}, {"measurement": "direct mortality within 24 h", "setting": "[1]; TSM, any concentration tested (0.05-0.4%)", "result": "No direct mortality occurred in any"}, {"measurement": "mortality", "setting": "[2]; 72 h after application in the 0.4% treatment", "result": 60.0, "unit": "%"}, {"measurement": "behavioural effects", "setting": "[2]; all concentrations tested", "result": "Convulsion and lack of movement"}, {"measurement": "direct mortality within 24 h", "setting": "[2]; all concentrations tested", "result": "did not cause direct mortality"}]}, {"smiles": "COC1=CC(=O)C(C(C)=O)C(=O)C1(C)C", "note": "(stereo not drawn) [Platyphyllol, 6,6-dimethyl-2-acetyl-5-methoxycyclohex-4-ene-1,3-dione]", "values": [{"measurement": "LD50 and 95% CL", "setting": "[1]", "result": 0.070}]}, {"smiles": "COC1=C(C)C(=O)C(C(=O)C(C)C)C(=O)C1(C)C", "note": "(stereo not drawn) [Tasmanone, 1-isobutroyl-4-methoxy-3,5,5-trimethylcyclohex-3-en-2,6-dione]", "values": [{"measurement": "LD50 and 95% CL", "setting": "[1]", "result": 0.055}]}]}
